Reference: US10377774B2 (JINAN UNIVERSITY, priority 2013, dated 2019)
Marks after values point to notes of the source that are not given here.

Experiments:
HL-60 xenografts = HL-60 xenografts in nude mice; type: in vivo; conditions: HL-60 xenograft nude mice
Method in brief: (§1)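 Female BALB/nu/nu mice received 1×10^7 cells subcutaneously and were randomized at 70–100 mm^3, six per group. Compounds were given at 1 mg/kg i.p. every two days for 8 doses, with saline as control. Tumor volume was calculated as V=½(ab^2), and body weight was monitored.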

[1] = test system: human melanoma cell line A375; experiment: MTT cell growth inhibition, A375; type: cell-based; conditions: Homo sapiens, A-375; A375, MTT assay, 72 h; read-out: IC50, growth of tumor cell line
Text: (§2) Experimental method: Cell lines (human non-small-cell lung cancer cell line A549, human colon cancer cell line LOVO, human nasopharyngeal carcinoma cell line CNE-2, human liver cancer cell line HepG2, human cervical carcinoma cell line Hela, human breast cancer cell lines MCF-7 and MDA-MB-231, human gastric carcinoma cell line NCI-N87, human prostatic cancer cell lines PC-3 and DU145, human leukemia cell line K562, human melanoma cell line A375, human neuroblastoma cell line SH-SY5H, human promyelocytic leukemia cell line HL-60, 5-FU-resistant human hepatocellular carcinoma cell line BEL-7402/5-Fu, doxorubicin-resistant hepatocellular carcinoma cell line HepG2/ADM, doxorubicin-resistant human breast cancer cell lines MCF-7/ADR) at logarithmic phase were resuspended in RPMI 1640 medium (containing 10% fetal bovine serum, 100 U/mL penicillin-streptomycin). Then, 100 μL of cells (cell concentration was 5×10^5/mL) were seeded into 96 wells plate. After 24 h incubation at 37° C. with 5% CO2, tested compounds were added (the control group without compound) for an additional 72 h incubation. After that, 30 μL of MTT [3-(4,5-Dimethylthiazol-2-yl)-2,5-diphenyltetrazolium bromide] solution (5 mg/mL) was added into each well and incubated for another 4 h at 37° C. and then the formazan crystals were solubilized with 100 μL DMSO. Finally, absorbance of each well was determined at 570 nm by a microplate reader (Thermo).
(§3) The concentration required to inhibit cell growth by 50% (IC50) was calculated from survival curves.

[2] = test system: human nasopharyngeal carcinoma cell line CNE-2; experiment: MTT cell growth inhibition, CNE-2; type: cell-based; conditions: Homo sapiens; CNE-2, MTT assay, 72 h; read-out: IC50, growth of tumor cell line
Text: as §2, §3

LOVO xenografts = LOVO xenografts in nude mice; type: in vivo; conditions: LOVO xenograft nude mice
Method in brief: as §1

[3] = test system: human liver cancer cell line HepG2; experiment: MTT cell growth inhibition, HepG2; type: cell-based; conditions: Homo sapiens; HepG2, MTT assay, 72 h; read-out: IC50, growth of tumor cell line
Text: as §2, §3

HepG2 xenografts = HepG2 xenografts in nude mice; type: in vivo; conditions: HepG2 xenograft nude mice
Method in brief: as §1

[4] = test system: human breast cancer cell line MCF-7; experiment: MTT cell growth inhibition, MCF-7; type: cell-based; conditions: Homo sapiens, MCF7; MCF-7, MTT assay, 72 h; read-out: IC50, growth of tumor cell line
Text: as §2, §3

K562 xenografts = K562 xenografts in nude mice; type: in vivo; conditions: K562 xenograft nude mice
Method in brief: as §1

[5] = MTT cytotoxicity on normal cells, LO2; conditions: human, LO2 cells (human normal liver cells)
Procedure: (§4) Then, 100 μL of cells (cell concentration was 5×10^5/mL) were seeded into 96 wells plate. After 24 h incubation at 37° C. with 5% CO2, tested compounds were added (the control group without compound) for an additional 72 h incubation. After that, 30 μL of MTT [3-(4,5-Dimethylthiazol-2-yl)-2,5-diphenyltetrazolium bromide] solution (5 mg/mL) was added into each well and incubated for another 4 h at 37° C. and then the formazan crystals were solubilized with 100 μL DMSO. Finally, absorbance of each well was determined at 570 nm by a microplate reader (Thermo).
(§5) The standard curve was drew with compound concentrations as the abscissa and cell growth inhibition rates as the ordinate. The concentration required to inhibit cell growth by 50% (IC50) was calculated from survival curves.
(§6) Experimental method: In vitro cytotoxicities of vinca alkaloids, hydrazinolyzed vinca alkaloids and vinca alkaloid dipeptide derivatives on human normal liver cells LO2 and human umbilical vein endothelial cells HUVEC were detected according to the method of Example 2.

[6] = test system: human leukemia cell line K562; experiment: MTT cell growth inhibition, K562; type: cell-based; conditions: Homo sapiens; K562, MTT assay, 72 h; read-out: IC50, growth of tumor cell line
Text: as §2, §3

[7] = test system: doxorubicin-resistant hepatocellular carcinoma cell line HepG2/ADM; experiment: MTT cell growth inhibition, HepG2/ADM; type: cell-based, human; conditions: Homo sapiens, MTT assay, 72 h, read-out: IC50, growth of tumor cell line
Text: as §2, §3

[8] = test system: human colon cancer cell line LOVO; experiment: MTT cell growth inhibition, LOVO; type: cell-based; conditions: Homo sapiens; LOVO (FAPα positive), MTT assay, 72 h; read-out: IC50, growth of tumor cell line
Text: as §2, §3

Acute toxicity test = type: in vivo; conditions: mouse, in vivo, ip; Kunming mice, injected intraperitoneally; read-out: LD50 (median lethal dose)
Procedure: Experimental method: Kunming mice were purchased from Guangdong Medical Experimental Animal Center, weighing 18-22 g, then randomly divided into several groups with 10 mice in each group. Different concentrations of VLB and vinca alkaloid dipeptide derivatives were injected intraperitoneally. Finally, the median lethal dose (LD50) was calculated according to the surviving animals.
LD50 was measured using the following formula:
LD50 (mg/kg)=The median lethal dose/body weight

[9] = test system: 5-FU-resistant human hepatocellular carcinoma cell line BEL-7402/5-Fu; experiment: MTT cell growth inhibition, BEL-7402/5-Fu; type: cell-based; conditions: Homo sapiens, Bel7402/5-FU, MTT assay, 72 h, read-out: IC50, growth of tumor cell line
[10] = test system: human cervical carcinoma cell line Hela; experiment: MTT cell growth inhibition, Hela; type: cell-based; conditions: Homo sapiens, MTT assay, 72 h, read-out: IC50, growth of tumor cell line
MDA-MB-231 xenografts = MDA-MB-231 xenografts in nude mice; type: in vivo, BALB/nu/nu mice; conditions: MDA-MB-231 xenograft nude mice
Method in brief: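 Female BALB/nu/nu mice bearing subcutaneous MDA-MB-231 tumours (1×10^7 cells; 70–100 mm^3 at randomisation), six per group. Compounds given at 1 mg/kg i.p. every two days for 8 doses versus saline. Tumour volume (V=½ab^2) and body weight tracked.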

[11] = test system: human breast cancer cell line MDA-MB-231; experiment: MTT cell growth inhibition, MDA-MB-231; type: cell-based; conditions: Homo sapiens; MDA-MB-231, MTT assay, 72 h; read-out: IC50, growth of tumor cell line
Text: as §2, §3

[12] = test system: human non-small-cell lung cancer cell line A549; experiment: MTT cell growth inhibition, A549; type: cell-based; conditions: Homo sapiens; A549, MTT assay, 72 h; read-out: IC50, growth of tumor cell line
Text: as §2, §3

[13] = test system: human prostatic cancer cell line DU145; experiment: MTT cell growth inhibition, DU-145; type: cell-based; conditions: Homo sapiens; DU-145, MTT assay, 72 h; read-out: IC50, growth of tumor cell line
Text: as §2, §3

[14] = test system: human promyelocytic leukemia cell line HL-60; experiment: MTT cell growth inhibition, HL-60; type: cell-based; conditions: Homo sapiens; HL-60, MTT assay, 72 h; read-out: IC50, growth of tumor cell line
Text: as §2, §3

[15] = test system: human neuroblastoma cell line SH-SY5H; experiment: MTT cell growth inhibition, SH-SY5H; type: cell-based; conditions: Homo sapiens, Neuroblastoma cell, MTT assay, 72 h, read-out: IC50, growth of tumor cell line
Text: as §2, §3

[16] = MTT cytotoxicity on normal cells, HUVEC; conditions: human, HUVEC (human umbilical vein endothelial cells)
Procedure: as §4, §5, §6

[17] = test system: human gastric carcinoma cell line NCI-N87; experiment: MTT cell growth inhibition, NCI-N87; type: cell-based; conditions: Homo sapiens; NCI-N87, MTT assay, 72 h; read-out: IC50, growth of tumor cell line
[18] = 1 mg/kg i.p. every two days, 8 administrations

CC[C@]1(O)C[C@@H]2CN(CCc3c([nH]c4ccccc34)[C@@](C(=O)OC)(c3cc4c(cc3OC)N(C)[C@H]3[C@@](O)(C(=O)OC)[C@H](OC(C)=O)[C@]5(CC)C=CCN6CC[C@]43[C@@H]65)C2)C1 [Vinblastine, reference compound]
Anti-tumor rate (%) (HL-60 xenografts; 1 mg/kg): 52.89** % | Body weight (g) Post-dose (HL-60 xenografts; 1 mg/kg): 16.2 ± 0.7 g | Tumor weight (HL-60 xenografts; 1 mg/kg): 0.98 ± 0.25 g | Body weight (g) Pre-dose (HL-60 xenografts; before dosing): 19.4 ± 1.0 g | IC50 [1]: 3.24 ± 0.39 nM | IC50 [2]: 1.03 ± 0.07 nM | Anti-tumor rate (%) (LOVO xenografts; 1 mg/kg): 44.60* % | Body weight (g) Post-dose (LOVO xenografts; 1 mg/kg): 19.6 ± 1.5 g | Tumor weight (LOVO xenografts; 1 mg/kg): 1.59 ± 0.51 g | Body weight (g) Pre-dose (LOVO xenografts; before dosing): 23.1 ± 1.4 g | IC50 [3]: 3.07 ± 0.12 nM | Anti-tumor rate (%) (HepG2 xenografts; 1 mg/kg): 42.75* % | Body weight (g) Post-dose (HepG2 xenografts; 1 mg/kg): 18.2 ± 1.8 g | Body weight (g) Pre-dose (HepG2 xenografts; before dosing): 21.9 ± 0.7 g | IC50 [4]: 3.67 ± 1.34 nM | Anti-tumor rate (%) (K562 xenografts; 1 mg/kg): 49.81* % | Body weight (g) Post-dose (K562 xenografts; 1 mg/kg): 17.4 ± 0.4 g | Tumor weight (K562 xenografts; 1 mg/kg): 0.86 ± 0.10 g | Body weight (g) Pre-dose (K562 xenografts; before dosing): 21.9 ± 0.7 g | IC50 at 72 h [5]: 0.34 ± 0.07 nM | IC50 [6]: 0.72 ± 0.2 nM | IC50 [7]: 10.1 ± 1.12 nM | IC50 [8]: 1.2 ± 0.24 nM | LD50 (Acute toxicity test): 4 mg/kg | IC50 [9]: 25.8 ± 3.01 nM | IC50 [10]: 4.34 ± 0.36 nM | Anti-tumor rate (%) (MDA-MB-231 xenografts; [18]): 53.26** % | Body weight (g) Post-dose (MDA-MB-231 xenografts; [18]): 18.3 ± 2.4 g | Tumor weight (MDA-MB-231 xenografts; [18]): 1.22 ± 0.35 g | Body weight (g) Pre-dose (MDA-MB-231 xenografts; before dosing): 20.7 ± 1.4 g | IC50 [11]: 0.81 ± 0.35 nM | IC50 [12]: 2.31 ± 0.13 nM | IC50 [13]: 0.78 ± 0.31 nM | IC50 [14]: 5.21 ± 0.84 nM | IC50 [15]: 6.13 ± 0.51 nM | IC50 at 72 h [16]: 0.76 ± 0.13 nM | IC50 [17]: 2.23 ± 0.43 nM
